Measured values published in PMC5908784, “Extracellular loops 2 and 3 of the calcitonin receptor selectively modify agonist binding and efficacy” (Biochemical Pharmacology, 2018).
Changes are numbered by the printed parent chain. Read-outs that look alike come from different tables or passages of the source. Where a SMILES comes first, the peptide text is derived from it. Bridges are numbered along the chain shown (N, C = ends).

Experiments:
Assay type in all cases: cell-based
[1] = target: T1, hCTR W290A (Homo sapiens, UniProt P30988, W290A); test: ERK1/2 phosphorylation; conditions: CV1-FlpIn cells, mean ± S.E.M.; for Emax: pERK maximal response
T1 construct: c-Myc (N); expressed in transfected cells
T1 sequence (P30988 25-474 W290A): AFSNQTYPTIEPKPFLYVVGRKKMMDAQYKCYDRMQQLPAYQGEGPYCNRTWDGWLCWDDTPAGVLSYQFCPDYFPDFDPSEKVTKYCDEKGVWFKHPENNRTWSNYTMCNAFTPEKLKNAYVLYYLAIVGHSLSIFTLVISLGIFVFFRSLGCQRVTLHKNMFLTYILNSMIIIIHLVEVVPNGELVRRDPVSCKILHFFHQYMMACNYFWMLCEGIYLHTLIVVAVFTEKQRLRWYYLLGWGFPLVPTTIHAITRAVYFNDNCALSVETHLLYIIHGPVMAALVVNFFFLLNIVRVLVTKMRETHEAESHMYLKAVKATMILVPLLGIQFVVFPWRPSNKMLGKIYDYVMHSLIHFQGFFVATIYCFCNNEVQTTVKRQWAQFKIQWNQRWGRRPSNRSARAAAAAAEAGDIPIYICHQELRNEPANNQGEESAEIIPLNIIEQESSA
In short: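 Overnight-plated cells at 2.5 × 10^4/well are stimulated, and ERK1/2 phosphorylation is referenced to the 10% FBS response at 6 min before logistic curve fitting.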

[2] = target: T2, hCTR F359A (Homo sapiens, UniProt P30988, F359A); test: IP1 accumulation; conditions: for Emax: SEM, read-out: Emax (% WT)
T2 construct: expressed in transfected cells
T2 sequence (P30988 25-474 F359A): T1 sequence (P30988 25-474 W290A) with A266W, F335A
In short: (§1)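 Ligand-induced IP1 (60 min, LiCl) measured by HTRF; normalized to 100 μM ATP response.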

[3] = target: T3, hCTR V358A (Homo sapiens, UniProt P30988, V358A); test: IP1 accumulation; conditions: mean ± S.E.M.; for Emax: IP1 maximal response, SEM
T3 construct: c-Myc (N); expressed in transfected cells
T3 sequence (P30988 25-474 V358A): T1 sequence (P30988 25-474 W290A) with A266W, V334A
In short: as §1

[4] = target: T4, hCTR P363A (Homo sapiens, UniProt P30988, P363A); test: IP1 accumulation; conditions: mean ± S.E.M.; for Emax: IP1 maximal response, SEM
T4 construct: expressed in transfected cells
T4 sequence (P30988 25-474 P363A): T1 sequence (P30988 25-474 W290A) with A266W, P339A
In short: as §1

[5] = target: T5, hCTR L297A (Homo sapiens, UniProt P30988, L297A); test: IP1 accumulation; conditions: mean ± S.E.M.; for Emax: IP1 maximal response, SEM
T5 construct: c-Myc (N); expressed in transfected cells
T5 sequence (P30988 25-474 L297A): T1 sequence (P30988 25-474 W290A) with A266W, L273A
In short: as §1

[6] = IP1, CV1-FlpIn cells, 60 min, LiCl

| EC50 ([1]; pERK, three-parameter logistic fit) [nM] | EC50 ([2]; F359A, IP1, CV1-FlpIn cells, 60 min, LiCl, mean ± S.E.M.) [nM] | Emax ([2]; F359A, IP1 maximal response, mean ± S.E.M.) [%] | EC50 [3, 6] [nM] | EC50 [4, 6] [nM] | EC50 [5, 6] [nM] | Compound | Emax [1] [%] | Emax [3] [%] | Emax [4] [%] | Emax [5] [%] | Emax [2] [%] |
| --- | --- | --- | --- | --- | --- | --- | --- | --- | --- | --- | --- |
| 7.41 | 13.2 | 77 ± 6 | 3.31 | 6.17 | 2 | CSCC[C@H](NC(=O)CNC(=O)[C@H](CO)NC(=O)[C@H](Cc1ccccc1)NC(=O)[C@H](CCCNC(=N)N)NC(=O)[C@H](Cc1c[nH]cn1)NC(=O)[C@H](Cc1ccccc1)NC(=O)[C@H](CC(N)=O)NC(=O)[C@H](CC(N)=O)NC(=O)[C@H](CC(C)C)NC(=O)[C@H](CC(N)=O)NC(=O)[C@H](CCCNC(=N)N)NC(=O)[C@H](Cc1c[nH]c2ccccc12)NC(=O)[C@H](Cc1ccc(O)cc1)NC(=O)[C@H](C)NC(=O)[C@H](CO)NC(=O)[C@H](CC(C)C)NC(=O)[C@@H](NC(=O)[C@@H]1CSSC[C@H](N)C(=O)N[C@@H](CO)C(=O)N[C@@H](CC(N)=O)C(=O)N[C@@H](CC(C)C)C(=O)N[C@@H](CO)C(=O)N[C@@H]([C@@H](C)O)C(=O)N1)C(C)C)C(=O)NCC(=O)N[C@@H](Cc1ccccc1)C(=O)NCC(=O)N1CCC[C@H]1C(=O)N[C@@H](CCC(=O)O)C(=O)N[C@H](C(=O)N1CCC[C@H]1C(N)=O)[C@@H](C)O [pCT] (H-CSNLSTCVLSAYWRNLNNFHRFSGMGFGPETP-NH2; disulfide 1-7) | 28 ± 3 | 73 ± 6 | 73 ± 10 | 68 ± 5 | – |
| – | – | – | – | – | – | CC(C)C[C@H](NC(=O)[C@H](CCCCN)NC(=O)CNC(=O)[C@H](CC(C)C)NC(=O)[C@@H](NC(=O)[C@@H]1CSSC[C@H](N)C(=O)N[C@@H](CO)C(=O)N[C@@H](CC(N)=O)C(=O)N[C@@H](CC(C)C)C(=O)N[C@@H](CO)C(=O)N[C@@H]([C@@H](C)O)C(=O)N1)C(C)C)C(=O)N[C@@H](CO)C(=O)N[C@@H](CCC(N)=O)C(=O)N[C@@H](CCC(=O)O)C(=O)N[C@@H](CC(C)C)C(=O)N[C@@H](Cc1c[nH]cn1)C(=O)N[C@@H](CCCCN)C(=O)N[C@@H](CC(C)C)C(=O)N[C@@H](CCC(N)=O)C(=O)N[C@H](C(=O)N[C@@H](Cc1ccc(O)cc1)C(=O)N1CCC[C@H]1C(=O)N[C@@H](CCCNC(=N)N)C(=O)N[C@H](C(=O)N[C@@H](CC(N)=O)C(=O)N[C@H](C(=O)NCC(=O)N[C@@H](CO)C(=O)NCC(=O)N[C@H](C(=O)N1CCC[C@H]1C(N)=O)[C@@H](C)O)[C@@H](C)O)[C@@H](C)O)[C@@H](C)O [sCT] | 38 ± 4 | 123 ± 6 | 86 ± 9 | 69 ± 7 | 125 ± 6 |
| – | – | – | – | – | – | CC[C@H](C)[C@H](NC(=O)[C@H](C)NC(=O)[C@@H](NC(=O)[C@H](CCC(N)=O)NC(=O)[C@@H]1CCCN1C(=O)[C@H](Cc1ccccc1)NC(=O)[C@@H](NC(=O)[C@H](Cc1c[nH]cn1)NC(=O)[C@H](Cc1ccccc1)NC(=O)[C@H](CCCCN)NC(=O)[C@H](CC(N)=O)NC(=O)[C@H](Cc1ccccc1)NC(=O)[C@H](CC(=O)O)NC(=O)[C@H](CCC(N)=O)NC(=O)[C@@H](NC(=O)[C@H](Cc1ccc(O)cc1)NC(=O)[C@@H](NC(=O)CNC(=O)[C@H](CC(C)C)NC(=O)[C@H](CCSC)NC(=O)[C@@H]1CSSC[C@H](N)C(=O)NCC(=O)N[C@@H](CC(N)=O)C(=O)N[C@@H](CC(C)C)C(=O)N[C@@H](CO)C(=O)N[C@@H]([C@@H](C)O)C(=O)N1)[C@@H](C)O)[C@@H](C)O)[C@@H](C)O)[C@@H](C)O)C(=O)NCC(=O)N[C@H](C(=O)NCC(=O)N[C@@H](C)C(=O)N1CCC[C@H]1C(N)=O)C(C)C [hCT] | – | 126 ± 9 | – | 52 ± 5 | 101 ± 9 |
